Experiment [1] deals with person with atopic dermatitis and with mild premenstrual syndrome. In words: Case report: person with atopic dermatitis and mild premenstrual syndrome given EPO, vitamin K1, then EPO again. The class given is in vivo, human. Particulars: vitamin K1 supplements alone. From the text:
A person with atopic dermatitis and with mild premenstrual syndrome was recommended to take 3 g/day of evening primrose oil (EPO). EPO is a widely used nutritional supplement for these problems. It contains about 70% of linoleic acid, but more importantly contains 8-12% of GLA which can by-pass a block in the conversion of linoleic acid to GLA which can occur in many situations, including atopic dermatitis, stress and menstrual disorders. […] As an experiment they were then cautiously given EPO again.

For experiment [2], the system named is person with severe menstrual cramps and mild premenstrual syndrome. In words: Case report: person with severe menstrual cramps and mild premenstrual syndrome given EPO and fish oil, vitamin K1, then EPO and fish oil again. The experiment is classed as in vivo, human. Particulars: vitamin K1 supplement 2 mg (2000 μg) per day for a month, alone. On the procedure:
A second person presented with severe menstrual cramps and mild premenstrual syndrome. […] They therefore took 2 mg (2000 μg) per day of a vitamin K1 supplement for a month which also had no effect on their menstrual problems.

Experiment [3] relates to women with osteoporosis. Particulars: 45 mg/day; cited from earlier work.

As for `CC1=C(C/C=C(\C)CCC[C@H](C)CCC[C@H](C)CCCC(C)C)C(=O)c2ccccc2C1=O` [vitamin K1, phylloquinone], in experiment [1], the “improvement of skin or premenstrual syndrome” value is recorded as “did not improve” and the “vitamin K deficiency” value is listed as “corrected”. In addition, in experiment [2], the “effect on menstrual problems” value is given as “no effect”.

As to menaquinones [vitamin K2], in experiment [3], the “progressive loss of bone mineral density” value is “slow down but not prevent” and the “risk of bone fractures” value is “could reduce the risk of bone fractures”.

(Values after patent US20020025983A1, “Vitamin K and essential fatty acids” (priority 2000, published 2002).)
